According to US8263606B2 (Xenon Pharmaceuticals Inc., priority 2008, dated 2012):

Experiments:
CYP3A4 = CYP3A4 (Homo sapiens, UniProt P08684); test: Cytochrome P450 (CYP450) Inhibition Assay, CYP3A4 (Vivid fluorescence, BOMCC substrate); details: human, P450 Baculosomes (recombinant CYP3A4), probe BOMCC (Vivid substrate)
sodium channel = test: Guanidine influx assay (14C-guanidine radiotracer flux, in vitro); assay type: cell-based, human or rat; details: guanidine influx assay using a known cell line that expresses a sodium channel
Summary of the method: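 Human or rat sodium channels stably expressed in endogenous or recombinant cells, plated ~100,000 cells/well for 20-24 h at 37 °C. Cells were treated with test agent in low-sodium choline HEPES saline plus aconitine and 14C-guanidine at ambient temperature, washed, and counted by scintillation; IC50 from 4-parameter logistic fit.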

Chain of CYP3A4 (P08684 whole entry): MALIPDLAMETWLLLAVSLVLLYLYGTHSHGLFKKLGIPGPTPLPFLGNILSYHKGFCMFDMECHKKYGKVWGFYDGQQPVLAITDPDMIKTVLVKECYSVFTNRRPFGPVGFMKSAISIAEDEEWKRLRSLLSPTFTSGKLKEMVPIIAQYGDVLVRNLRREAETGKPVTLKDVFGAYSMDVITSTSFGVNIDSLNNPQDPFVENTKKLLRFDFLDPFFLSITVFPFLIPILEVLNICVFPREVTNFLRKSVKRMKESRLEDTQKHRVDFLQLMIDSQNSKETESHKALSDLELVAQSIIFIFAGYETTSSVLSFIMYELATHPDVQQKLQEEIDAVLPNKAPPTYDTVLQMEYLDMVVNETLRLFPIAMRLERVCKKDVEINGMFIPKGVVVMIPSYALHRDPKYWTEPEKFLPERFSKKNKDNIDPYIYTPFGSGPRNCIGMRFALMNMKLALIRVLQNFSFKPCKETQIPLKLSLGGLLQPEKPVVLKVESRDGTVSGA

SMILES | inhibition at 10 µM (CYP3A4) [%] | melting point | IC50 (sodium channel) [nM] | IC50 (sodium channel; activity level class) [nM]
O=C1N(Cc2ccccc2C(F)(F)F)c2ccccc2C12COc1cc3[nH]ncc3cc12 (centres unmarked) [Example 46, 1′-[2-(trifluoromethyl)benzyl]-1H-spiro[furo[3,2-f]indazole-5,3′-indol]-2′(1′H)-one] | > 50 | 124 to 126 °C | 1000 to 10000 | –
CC(C)CCN1C(=O)C2(COc3cc(O)ccc32)c2ccccc21 (centres unmarked) [Example 11.49, 6-hydroxy-1′-(3-methylbutyl)spiro[1-benzofuran-3,3′-indol]-2′(1′H)-one] | > 50 | 101 to 103 °C | 1 to 100 | –
N#Cc1cccnc1CN1C(=O)C2(COc3cc4c(cc32)OCCO4)c2ccccc21 (centres unmarked) [Example 11.80] | < 50 | 230 to 233 °C | 1 to 100 | –
COc1cc2c(cc1F)C1(CO2)C(=O)N(Cc2ccccn2)c2ccccc21 (centres unmarked) [Example 4.65, 5-fluoro-6-methoxy-1′-(pyridin-2-ylmethyl)spiro[1-benzofuran-3,3′-indol]-2′(1′H)-one] | < 50 | 142 to 144 °C | – | 100 to 1000
O=C1CC[C@@H](CN2C(=O)C3(COc4cc5c(cc43)OCO5)c3ccccc32)N1 (stereo partly drawn) [Example 4.72, 1′-{[(2S)-5-oxopyrrolidin-2-yl]methyl}spiro[furo[2,3-f][1,3]benzodioxole-7,3′-indol]-2′(1′H)-one] | > 50 | 121 to 130 °C | – | 1000 to 10000
O=C1N(C[C@H](O)CO)c2ccccc2C12COc1cc3c(cc12)OCCO3 (stereo partly drawn) [Example 40, 1′-[(2S)-2,3-dihydroxypropyl]-2,3-dihydrospiro[furo[2,3-g][1,4]benzodioxine-8,3′-indol]-2′(1′H)-one] | – | 179 to 181 °C | 100 to 1000 | –
O=C1N(Cc2ccccn2)c2ccccc2C12COc1ccc3c(c12)OCCO3 (centres unmarked) [Example 4.127, 1-(pyridin-2-ylmethyl)-2,3-dihydrospiro[furo[3,2-f][1,4]benzodioxine-9,3′-indol]-2′(1′H)-one] | – | 132 to 134 °C | – | 1000 to 10000
O=C1N(Cc2cnccc2C(F)(F)F)c2ccccc2C12COc1cc3c(cc12)OCCO3 (centres unmarked) [Example 5.12, 1′-{[4-(trifluoromethyl)pyridin-3-yl]methyl}-2,3-dihydrospiro[furo[2,3-g][1,4]benzodioxine-8,3′-indol]-2′(1′H)-one] | > 50 | 131 to 132 °C | – | –
COCC(=O)Nc1cccc2c1C1(COc3cc4c(cc31)OCCO4)C(=O)N2C (centres unmarked) [Example 16.28, 2-methoxy-N-(1′-methyl-2′-oxo-1′,2,2′,3-tetrahydrospiro[furo[2,3-g][1,4]benzodioxine-8,3′-indol]-4′-yl)acetamide] | < 50 | 237 to 239 °C | – | –
O=C(O)c1ccc(CN2C(=O)C3(COc4cc5c(cc43)OCCO5)c3ccccc32)o1 (centres unmarked) [Example 11.32, 5-[(2′-oxo-2,3-dihydrospiro[furo[2,3-g][1,4]benzodioxine-8,3′-indol]-1′(2′H)-yl)methyl]furan-2-carboxylic acid] | – | 192 to 195 °C | 1000 to 10000 | –
CN1C(=O)C2(COc3cc4c(cc32)OCCO4)c2c(C#N)cccc21 (centres unmarked) [Example 16.71, 1′-methyl-2′-oxo-1′,2,2′,3-tetrahydrospiro[furo[2,3-g][1,4]benzodioxine-8,3′-indole]-4′-carbonitrile] | < 50 | 196 to 197 °C | – | –
CN1C(=O)C2(COc3cc4c(cc32)OCCO4)c2c(C(=O)Oc3ccccc3)cccc21 (centres unmarked) [Example 2.53, phenyl 1′-methyl-2′-oxo-1′,2,2′,3-tetrahydrospiro[furo[2,3-g][1,4]benzodioxine-8,3′-indole]-4′-carboxylate] | > 50 | 184 to 186 °C | – | –
CCCCCNC(=O)c1cccc2c1C1(COc3cc4c(cc31)OCCO4)C(=O)N2C (centres unmarked) [Example 16.42, 1′-methyl-2′-oxo-N-pentyl-1′,2,2′,3-tetrahydrospiro[furo[2,3-g][1,4]benzodioxine-8,3′-indole]-4′-carboxamide] | < 50 | 191 to 193 °C | – | –
CN1C(=O)C2(COc3cc4c(cc32)OCCO4)c2c(-c3cn[nH]c3)cccc21 (centres unmarked) [Example 16.69, 1′-methyl-4′-(1H-pyrazol-4-yl)-2,3-dihydrospiro[furo[2,3-g][1,4]benzodioxine-8,3′-indol]-2′(1′H)-one] | < 50 | 250 to 251 °C | – | –
CN1C(=O)C2(COc3cc4c(cc32)OCCO4)c2c(-c3ccc4ccc(=O)oc4c3)cccc21 (centres unmarked) [Example 16.15, 1′-methyl-4′-(2-oxo-2H-chromen-7-yl)-2,3-dihydrospiro[furo[2,3-g][1,4]benzodioxine-8,3′-indol]-2′(1′H)-one] | > 50 | 228 to 229 °C | – | –
Cc1nc(-c2cccc3c2C2(COc4cc5c(cc42)OCCO5)C(=O)N3C)cs1 (centres unmarked) [Example 25, 1′-methyl-4′-(2-methyl-1,3-thiazol-4-yl)-2,3-dihydrospiro[furo[2,3-g][1,4]benzodioxine-8,3′-indol]-2′(1′H)-one] | > 50 | 219 to 220 °C | – | –
CN1C(=O)C2(COc3cc4c(cc32)OCCO4)c2c(C(=O)NC3CCC3)cccc21 (centres unmarked) [Example 16.77, N-cyclobutyl-1′-methyl-2′-oxo-1′,2,2′,3-tetrahydrospiro[furo[2,3-g][1,4]benzodioxine-8,3′-indole]-4′-carboxamide] | < 50 | 128 to 129 °C | – | –
CN1C(=O)C2(COc3cc4c(cc32)OCO4)c2c(C3CCOC3)cccc21 (centres unmarked) [Example 16.73, 1′-methyl-4′-(tetrahydrofuran-3-yl)spiro[furo[2,3-f][1,3]benzodioxole-7,3′-indol]-2′(1′H)-one] | > 50 | 182 to 184 °C | – | –
CN1C(=O)C2(COc3cc4c(cc32)OCCO4)c2c(NC(=O)c3ccccc3)cccc21 (centres unmarked) [Example 16.27, N-(1′-methyl-2′-oxo-1′,2,2′,3-tetrahydrospiro[furo[2,3-g][1,4]benzodioxine-8,3′-indol]-4′-yl)benzamide] | > 50 | 192 to 194 °C | – | –
CN1C(=O)C2(COc3cc4c(cc32)OCCO4)c2c(OCc3ccccc3)cccc21 (centres unmarked) [Example 16.57, 4′-(benzyloxy)-1′-methyl-2,3-dihydrospiro[furo[2,3-g][1,4]benzodioxine-8,3′-indol]-2′(1′H)-one] | > 50 | 198 to 200 °C | – | –
O=C1N(C(c2ccccc2)c2ccccc2)c2cccc(F)c2C12COc1cc3c(cc12)OCCO3 (centres unmarked) [Example 2.44, 1′-(diphenylmethyl)-4′-fluoro-2,3-dihydrospiro[furo[2,3-g][1,4]benzodioxine-8,3′-indol]-2′(1′H)-one] | – | 196 to 198 °C | – | 100 to 1000
CCCCCC(=O)Nc1cccc2c1C1(COc3cc4c(cc31)OCCO4)C(=O)N2C (centres unmarked) [Example 16.32, N-(1′-methyl-2′-oxo-1′,2,2′,3-tetrahydrospiro[furo[2,3-g][1,4]benzodioxine-8,3′-indol]-4′-yl)hexanamide] | < 50 | 151 to 153 °C | – | –
O=C1N(Cc2cccnc2C(F)(F)F)c2ccccc2C12COc1cc3c(cc12)OCCO3 (centres unmarked) [Example 5.10, 1′-{[2-(trifluoromethyl)pyridin-3-yl]methyl}-2,3-dihydrospiro[furo[2,3-g][1,4]benzodioxine-8,3′-indol]-2′(1′H)-one] | < 50 | 219 to 220 °C | – | –
O=C1N(C[C@H]2COCCO2)c2ccccc2C12COc1cc3c(cc12)OCCCO3 (stereo partly drawn) [Example 8.13, 1′-[(2S)-1,4-dioxan-2-ylmethyl]-3,4-dihydro-2H-spiro[furo[2,3-h][1,5]benzodioxepine-9,3′-indol]-2′(1′H)-one] | < 50 | 137 to 139 °C | – | –
CN1C(=O)C2(COc3cc4c(cc32)OCCO4)c2c(Oc3ccccn3)cccc21 (centres unmarked) [Example 16.53, 1′-methyl-4′-(pyridin-2-yloxy)-2,3-dihydrospiro[furo[2,3-g][1,4]benzodioxine-8,3′-indol]-2′(1′H)-one] | > 50 | 219 to 221 °C | – | –
CN1C(=O)C2(COc3cc4c(cc32)OCCO4)c2c(C(=O)N3CCCC3)cccc21 (centres unmarked) [Example 16.41, 1′-methyl-4′-(pyrrolidin-1-ylcarbonyl)-2,3-dihydrospiro[furo[2,3-g][1,4]benzodioxine-8,3′-indol]-2′(1′H)-one] | < 50 | 242 to 244 °C | – | –
COCCNC(=O)c1cccc2c1C1(COc3cc4c(cc31)OCCO4)C(=O)N2C (centres unmarked) [Example 16.43, N-(2-methoxyethyl)-1′-methyl-2′-oxo-1′,2,2′,3-tetrahydrospiro[furo[2,3-g][1,4]benzodioxine-8,3′-indole]-4′-carboxamide] | < 50 | 97 to 100 °C | – | –
CN1C(=O)C2(COc3cc4c(cc32)OCCO4)c2c(Oc3ccc(C(F)(F)F)cc3)cccc21 (centres unmarked) [Example 16.56, 1′-methyl-4′-[4-(trifluoromethyl)phenoxy]-2,3-dihydrospiro[furo[2,3-g][1,4]benzodioxine-8,3′-indol]-2′(1′H)-one] | > 50 | 198 to 201 °C | – | –
CN1C(=O)C2(COc3cc4c(cc32)OCCO4)c2c(-c3csc(N)n3)cccc21 (centres unmarked) [Example 26, 4′-(2-amino-1,3-thiazol-4-yl)-1′-methyl-2,3-dihydrospiro[furo[2,3-g][1,4]benzodioxine-8,3′-indol]-2′(1′H)-one] | > 50 | 233 to 234 °C (dec.) | – | –
CN1C(=O)C2(COc3cc4c(cc32)OCCO4)c2c(O)cccc21 (centres unmarked) [Example 16.52, 4′-hydroxy-1′-methyl-2,3-dihydrospiro[furo[2,3-g][1,4]benzodioxine-8,3′-indol]-2′(1′H)-one] | < 50 | > 250 °C | – | –
